Reference: patent EP3722296B1, “DIHYDRONAPHTHYRIDINES AND RELATED COMPOUNDS USEFUL AS KINASE INHIBITORS FOR THE TREATMENT OF PROLIFERATIVE DISEASES” (Deciphera Pharmaceuticals, LLC, priority 2012, dated 2013)

Legend:
Type in all cases: biochemical
[1] = biological target: T1, c-KIT T670I kinase (Homo sapiens, UniProt P10721, T670I); test: c-KIT T670I kinase assay; conditions: enzymatic assay
T1 construct: The construct contains residues T544-V976 of cKit; GST (N); TEV cleavage site (internal); purchased deCODE Biostructures
Procedure: (§1) In this assay, the oxidation of NADH (measured by decrease in absorbance at 340 nm) was continuously monitored spectrophotometrically. […] The inhibition reaction was started by mixing serial diluted test compound with the above reaction mixture. The absorption at 340 nm was monitored continuously for 5 hours at 30 °C on Synergy 2 plate reader (BioTech). […] The protein construct was prepared by deCODE Biostructures using procedures known in the art. The construct contains […] of cKit, an N-terminal tag, a GST-fusion sequence and a TEV cleavage site. This construct is identical to Seq ID no. 1 except for the T670I mutation. [formula] [formula]

[2] = biological target: T2, c-KIT D816V kinase (Homo sapiens, UniProt P10721, D816V); test: c-KIT D816V kinase Assay; conditions: enzymatic assay, ATP 200 uM
T2 construct: residues T544-V976 with N-terminal GST fusion; purchased deCODE Biostructures
Procedure: (§2) In this assay, the oxidation of NADH (measured by decrease in absorbance at 340 nm) was continuously monitored spectrophotometrically. […] The inhibition reaction was started by mixing serial diluted test compound with the above reaction mixture. The absorption at 340 nm was monitored continuously for 5 hours at 30 °C on Synergy 2 plate reader (BioTech).
(§3) The protein construct was prepared by deCODE Biostructures using procedures known in the art. The construct contains residues T544-V976 of cKit, an N-terminal tag, a GST-fusion sequence and a TEV cleavage site. This construct is identical to Seq ID no.

[3] = biological target: c-KIT kinase (Homo sapiens, UniProt P10721); test: c-KIT kinase Assay; parameters: cKIT residues T544-V976; GST (N); TEV cleavage site (internal); purchased deCODE Biostructures; conditions: enzymatic assay, ATP 200 µM; read-out: KIT (wt) IC50
Procedure: In this assay, the oxidation of NADH (measured by decrease in absorbance at 340 nm) was continuously monitored spectrophotometrically. […] The absorption at 340 nm was monitored continuously for 2 hours at 30 °C on Synergy 2 (BioTeK). The reaction rate was calculated using the 0 to 1 h time frame. Percent inhibition was obtained by comparison of reaction rate with that of a control (i.e. with no test compound). IC50 values were calculated from a series of percent inhibition values determined at a range of inhibitor concentrations using software routines as implemented in the GraphPad Prism software package. The protein construct was prepared by deCODE Biostructures using procedures known in the art. The construct contains […] of cKit, an N-terminal tag, a GST-fusion sequence and a TEV cleavage site. [formula]

[4] = biological target: T3, c-KIT V654A kinase (Homo sapiens, UniProt P10721, V654A); test: c-KIT V654A Kinase Assay; conditions: enzymatic assay, ATP 200 µM
T3 construct: residues T544-V976 with N-terminal GST fusion; purchased deCODE Biostructures
Procedure: as §2, with “6” for “5”
as §3

[5] = biological target: T4, c-KIT D816H kinase (Homo sapiens, UniProt P10721, D816H); test: c-KIT D816H Kinase Assay; conditions: enzymatic assay, ATP 200 µM
T4 construct: The construct contains residues T544-V976 of cKit; GST (N); TEV cleavage site (internal); purchased deCODE Biostructures
Procedure: as §1, with “6” for “5”, “no.” for “no. 1 except for the T670I mutation. [formula] [formula]”

c-KIT kinase, sequence (P10721 544-976): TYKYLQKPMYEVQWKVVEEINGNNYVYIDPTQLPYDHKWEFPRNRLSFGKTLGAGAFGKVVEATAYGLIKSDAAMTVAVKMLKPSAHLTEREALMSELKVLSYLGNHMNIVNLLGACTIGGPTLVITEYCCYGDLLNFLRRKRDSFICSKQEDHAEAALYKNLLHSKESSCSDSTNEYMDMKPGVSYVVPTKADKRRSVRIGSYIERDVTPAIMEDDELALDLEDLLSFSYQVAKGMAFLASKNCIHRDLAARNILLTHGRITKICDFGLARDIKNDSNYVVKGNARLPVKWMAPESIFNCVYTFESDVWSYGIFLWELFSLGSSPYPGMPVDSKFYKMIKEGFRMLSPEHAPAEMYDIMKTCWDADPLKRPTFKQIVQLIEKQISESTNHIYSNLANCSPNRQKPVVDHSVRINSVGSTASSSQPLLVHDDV
T1 sequence (P10721 544-976 T670I): as the sequence (P10721 544-976) above, with T127I counted along it
T3 sequence (P10721 544-976 V654A): as the sequence (P10721 544-976) above, with V111A counted along it
T2 sequence (P10721 544-976 D816V): as the sequence (P10721 544-976) above, with D273V counted along it
T4 sequence (P10721 544-976 D816H): as the sequence (P10721 544-976) above, with D273H counted along it

SMILES | IC50 [1] | IC50 [2] | IC50 [3] | IC50 [4] | IC50 [5]
CNc1cc2c(cn1)cc(-c1cc(NC(=O)Nc3cccc(C#N)c3)ccc1Cl)c(=O)n2C [Example 11, 1-(4-chloro-3-(1-methyl-7-(methylamino)-2-oxo-1,2-dihydro-1,6-naphthyridin-3-yl)phenyl)-3-(3-cyanophenyl)urea] |  | > 1000 nM |  |  | 
CCn1c(=O)c(-c2cc(NC(=O)Nc3ccc(F)c(CN4CCN(C)CC4)c3)c(F)cc2F)cc2cnc(NC)cc21 [Example 90, 1-(5-(1-ethyl-7-(methylamino)-2-oxo-1,2-dihydro-1,6-naphthyridin-3-yl)-2,4-difluorophenyl)-3-(4-fluoro-3-((4-methylpiperazin-1-yl)methyl)phenyl)urea] | 10 to 100 nM | > 1000 nM | < 10 nM |  | 10 to 100 nM
CCn1c(=O)c(-c2cc(NC(=O)Nc3cccc(CN4CCN(C)CC4)c3)c(F)cc2C)cc2cnc(NC)cc21 [Example 82, 1-(5-(1-ethyl-7-(methylamino)-2-oxo-1,2-dihydro-1,6-naphthyridin-3-yl)-2-fluoro-4-methylphenyl)-3-(3-((4-methylpiperazin-1-yl)methyl)phenyl)urea] | 100 to 1000 nM | 100 to 1000 nM | 10 to 100 nM |  | 
CCn1c(=O)c(-c2cc(NC(=O)Nc3ccccc3)c(F)cc2Cl)cc2cnc(N[C@@H](C)COC)cc21 [Example 43, (S)-1-(4-chloro-5-(1-ethyl-7-(1-methoxypropan-2-ylamino)-2-oxo-1,2-dihydro-1,6-naphthyridin-3-yl)-2-fluorophenyl)-3-phenylurea] | 100 to 1000 nM | 100 to 1000 nM | 10 to 100 nM |  | 
CCn1c(=O)c(-c2cc(NC(=O)Nc3ccccc3)c(F)cc2Br)cc2cnc(NC(=O)CC#N)cc21 [Example 64, N-(3-(2-bromo-4-fluoro-5-(3-phenylureido)phenyl)-1-ethyl-2-oxo-1,2-dihydro-1,6-naphthyridin-7-yl)-2-cyanoacetamide] | 100 to 1000 nM | 100 to 1000 nM | 10 to 100 nM |  | 
CCn1c(=O)c(-c2cc(NC(=O)Nc3cccc(CN4CCN(C)CC4)c3)c(F)cc2Br)cc2cnc(NC)cc21 [Example 83, 1-(4-bromo-5-(1-ethyl-7-(methylamino)-2-oxo-1,2-dihydro-1,6-naphthyridin-3-yl)-2-fluorophenyl)-3-(3-((4-methylpiperazin-1-yl)methyl)phenyl)urea] | 100 to 1000 nM | 100 to 1000 nM | < 10 nM |  | 
CCn1c(=O)c(-c2cc(NC(=O)Nc3cc(F)cc(Cl)c3)c(F)cc2Cl)cc2cnc(NC)cc21 [Example 71, 1-(4-chloro-5-(1-ethyl-7-(methylamino)-2-oxo-1,2-dihydro-1,6-naphthyridin-3-yl)-2-fluorophenyl)-3-(3-chloro-5-fluorophenyl)urea] | 10 to 100 nM | 100 to 1000 nM | 10 to 100 nM | 10 to 100 nM | 
CCn1c(=O)c(-c2cc(NC(=O)Nc3ccccc3)c(F)cc2I)cc2cnc(NC)cc21 [Example 114, 1-(5-(1-ethyl-7-(methylamino)-2-oxo-1,2-dihydro-1,6-naphthyridin-3-yl)-2-fluoro-4-iodophenyl)-3-phenylurea] | > 1000 nM | 100 to 1000 nM | 10 to 100 nM |  | 

Results, then the compound that gave them:

IC50 [1] | IC50 [2] | IC50 [3] | IC50 [4] | IC50 [5] | SMILES
10 to 100 nM | 10 to 100 nM | < 10 nM |  |  | CCn1c(=O)c(-c2cc(NC(=O)Nc3ccccc3)c(F)cc2Cl)cc2cnc(NC(=O)CC#N)cc21 [Example 65, N-(3-(2-chloro-4-fluoro-5-(3-phenylureido)phenyl)-1-ethyl-2-oxo-1,2-dihydro-1,6-naphthyridin-7-yl)-2-cyanoacetamide]
100 to 1000 nM | 10 to 100 nM | < 10 nM | 10 to 100 nM | 10 to 100 nM | CCn1c(=O)c(-c2cc(NC(=O)Nc3ccccc3)c(F)cc2C)cc2cnc(NCCOC)cc21 [Example 37, 1-(5-(1-ethyl-7-(2-methoxyethylamino)-2-oxo-1,2-dihydro-1,6-naphthyridin-3-yl)-2-fluoro-4-methylphenyl)-3-phenylurea]
< 10 nM | 100 to 1000 nM | < 10 nM |  |  | CCn1c(=O)c(-c2cc(NC(=O)Nc3cc(F)ccc3F)c(F)cc2F)cc2cnc(NC)cc21 [Example 62, 1-(2,5-difluorophenyl)-3-(5-(1-ethyl-7-(methylamino)-2-oxo-1,2-dihydro-1,6-naphthyridin-3-yl)-2,4-difluorophenyl)urea]
10 to 100 nM | 100 to 1000 nM | 10 to 100 nM | 10 to 100 nM |  | CCn1c(=O)c(-c2cc(NC(=O)Nc3cc(F)cc(Cl)c3)c(F)cc2C)cc2cnc(NC)cc21 [Example 69, 1-(3-chloro-5-fluorophenyl)-3-(5-(1-ethyl-7-(methylamino)-2-oxo-1,2-dihydro-1,6-naphthyridin-3-yl)-2-fluoro-4-methylphenyl)urea]
100 to 1000 nM | 10 to 100 nM | < 10 nM |  |  | CNc1cc2c(cn1)cc(-c1cc(NC(=O)Nc3ccccc3)c(F)cc1Br)c(=O)n2C [Example 56, 1-(4-bromo-2-fluoro-5-(1-methyl-7-(methylamino)-2-oxo-1,2-dihydro-1,6-naphthyridin-3-yl)phenyl)-3-phenylurea]
100 to 1000 nM | 100 to 1000 nM | 10 to 100 nM |  |  | CCn1c(=O)c(-c2cc(NC(=O)Nc3ccccc3)c(F)cc2Cl)cc2cnc(NCCN(C)C)cc21 [Example 29, 1-(4-chloro-5-(7-(2-(dimethylamino)ethylamino)-1-ethyl-2-oxo-1,2-dihydro-1,6-naphthyridin-3-yl)-2-fluorophenyl)-3-phenylurea]
< 10 nM | 10 to 100 nM | < 10 nM | 100 to 1000 nM |  | CCn1c(=O)c(-c2cc(NC(=O)Nc3cc(C)cc(F)c3)c(F)cc2Cl)cc2cnc(NC)cc21 [Example 72, 1-(4-chloro-5-(1-ethyl-7-(methylamino)-2-oxo-1,2-dihydro-1,6-naphthyridin-3-yl)-2-fluorophenyl)-3-(3-fluoro-5-methylphenyl)urea]
10 to 100 nM | < 10 nM | < 10 nM |  |  | CCn1c(=O)c(-c2cc(NC(=O)Nc3ccccc3)c(F)cc2Cl)cc2cnc(NC(=O)COC)cc21 [Example 74, N-(3-(2-chloro-4-fluoro-5-(3-phenylureido)phenyl)-1-ethyl-2-oxo-1,2-dihydro-1,6-naphthyridin-7-yl)-2-methoxyacetamide]
< 10 nM | 10 to 100 nM | < 10 nM |  | < 10 nM | CCn1c(=O)c(-c2cc(NC(=O)Nc3ccccc3)c(F)cc2F)cc2cnc(NC(=O)N(C)C)cc21 [Example 112, 3-(3-(2,4-difluoro-5-(3-phenylureido)phenyl)-1-ethyl-2-oxo-1,2-dihydro-1,6-naphthyridin-7-yl)-1,1-dimethylurea]
10 to 100 nM | 10 to 100 nM | < 10 nM |  | < 10 nM | CCn1c(=O)c(-c2cc(NC(=O)Nc3ccccc3)c(F)cc2C)cc2cnc(NC(C)=O)cc21 [Example 80, N-(1-ethyl-3-(4-fluoro-2-methyl-5-(3-phenylureido)phenyl)-2-oxo-1,2-dihydro-1,6-naphthyridin-7-yl)acetamide]
10 to 100 nM | 10 to 100 nM | < 10 nM |  |  | CCn1c(=O)c(-c2cc(NC(=O)Nc3cccc(F)c3)c(F)cc2C)cc2cnc(NC(C)=O)cc21 [Example 78, N-(1-ethyl-3-(4-fluoro-5-(3-(3-fluorophenyl)ureido)-2-methylphenyl)-2-oxo-1,2-dihydro-1,6-naphthyridin-7-yl)acetamide]
